Drawing on ChEMBL document CHEMBL1131918, “Quantitative analysis of the kinetics of phospholipase A2 using fast atom bombardment mass spectrometry” (Bioorg Med Chem Lett, 1999), this text covers k cat and Km for two molecules.

Data set [1] can be described thus: Catalytic rate constant against phospholipase A2 was determined. Type of data set: ADME.
Another data set deals with phospholipase A2. Description: Michaelis -Menten constant against phospholipase A2 was determined. It counts as ADME. To be noted: phospholipase A2 enzyme.

In data set [1], `CCCCCCCCCC(=O)OCC(O)COP(=O)([O-])OCC[N+](C)(C)C` (centres undefined) registered a k cat of 1.03 µM/min/mg. In addition, the Michaelis constant (Km) – broadly, the concentration of substrate that gives half-maximal velocity – with phospholipase A2 came to 2.3 mM.
For the molecule `CCCCCCCCCC(=O)OCC(COP(=O)([O-])OCC[N+](C)(C)C)OC(=O)CCCCCCCCC` (centres undefined), in data set [1], the k cat is 1.06 µM/min/mg. Further, the Km with phospholipase A2 turned out to be 2.4 mM.
